The conditions of series [1]: in vivo; cited from earlier work.
For series [2] the following is noted: cited from earlier work.
How the values of series [3] were obtained:
The composition is prepared by the combination of selenium disulfide (SeS2) in combination with Petrolatum base (and in the absence of surface acting agents). Compositions comprising various concentrations of selenium disulfide are prepared, such as 0.1 wt. %, 0.5 wt. %, 1 wt. %, 1.5 wt. %, 2 wt. %, and 2.5 wt. %.
Various compositions prepared as described above are administered to the eye or eyelid (e.g., margin thereof) of albino rabbits. Various compositions are administered to distinct cohorts using various treatment protocols, such as based on frequency of administration (e.g., once daily, twice daily, every other day, and once weekly) and volume of administration (e.g., <25 μL, […] per administration). Compositions lacking selenium disulfide are administered to a separate cohort to establish a control.
Albino rabbits are evaluated, and an accurate volume of the composition is ejected from a device (e.g., micropipette) and is delivered to the lower eyelid of the rabbits. In one example, the volume is ˜25 μL (equivalent to 20 mg in weight). The rabbits are examined daily.
2.5% SeS2 at a dosing volume of 25 μL is administered to the animals.
Therefore, a reduced dose of 5 μL (equivalent to 4 mg) is placed on the lid of the rabbits.

This is another data set of the same source.
The conditions of series [4]: rabbit, in vivo. From the text: On a subsequent study to Example 6, concentrations ranging from 0.5 wt. % to 2.5 wt. % were used on New-Zealand rabbits, once daily to twice weekly for 28 days.
Series [5] deals with Demodex folliculorum mites. The series can be described thus: In vitro assessment of anti-demodectic properties: viability of Demodex mites on epilated eyelashes. The settings on record: SeS2 4%.
For series [6] the following is noted: rabbit, in vivo; cited from earlier work.
Where [7] appears, read: 25 μL (20 mg) of 2.5% SeS2 with petrolatum, lower eyelid of right eye.

A value given as a limit tells only on which side of the number the result lay.

Consider `S=[Se]=S` [SeS2, selenium disulfide], for which the “irritancy to rabbit dermis” value in series [1] is “did not appear to be irritant”. The “tolerability of ointment on the lids” value in series [2] (0.5 percent ointment, all patients complained of burning of the conjunctiva (Rychener)) is “too strong”. In series [2] (human, in vivo), the epithelial keratitis was 6 cases; the “keratitis, conjunctivitis with erythematous and swollen lids” value was “Two”. Moreover, the “clinical or microscopic findings” value in series [3] (0.5%, 1.0% or 2.5%, twice weekly or once daily, dose volume 5 μL, summary, species not stated) is “no clinical or microscopic findings”. In addition, in series [3] (rabbit, in vivo), the “keratitis, including red and swollen eyelids, animals affected” value is listed as “all animals”; the “ocular effects at reduced dose” value is “no evidence for any of the effects”. Also, under setting [7], the “finding on clinical examination” value is listed as “keratitis is observed with multiple punctate over the center exposed part of the cornea” and the “time to reported pain” value is on record as “About 4 hours”. In addition, the “time to resolution of keratitis” value (treated with lubricants and local NSAID) was not above 48 h. For the same compound, the “ophthalmic observations versus previous study” value in series [4] was “safer”. Moreover, the “death of the mites” value in series [5] is reported as “caused death of the mites”. Besides, the “time to onset of ocular effects after application” value in series [6] was not above 2 h.

The values are drawn from patent US20220323487A1, “METERED DOSE FOR DEMODEX AND DISORDERS RELATED THERETO” (Azura Ophthalmics Ltd., priority 2019, published 2022).
